Data on ten compounds can be found in article PMC6006285, “Specific stereochemistry of OP-1074 disrupts estrogen receptor alpha helix 12 and confers pure antiestrogenic activity” (Nature Communications, 2018).

Assay [1] has as its system AP. Also noted: method as in Holinka et al. The conditions noted are these: ref Holinka et al.; cited from earlier work.
Assay [2] deals with uterus. The conditions noted are these: cited from earlier work.
The test system of assay [3] is AP activity in Ishikawa uterine cells. As to the kind of experiment: Alkaline phosphatase (AP) assay, agonist mode (absence of E2). It is filed as cell-based, human. The conditions noted are these: for Induction of AP activity (% E2): Maximum AP activity observed relative to positive control, 500 pM E2, means of n independent experiments ±s.d.; for Maximal AP activity in agonist mode relative to E2 control: absence of E2, normalized to 500 pM E2, representative experiment (Fig. 2a). Here is the method:
(§1) Our primary screen to distinguish pure antiestrogens from SERMs was induction of alkaline phosphatase (AP) activity in Ishikawa uterine cells. […] The reference SERM used in our screen was endoxifen (N-desmethyl-4-hydroxytamoxifen), the most abundant bioactive metabolite of tamoxifen.
(§2) Shown is a representative figure analyzed and presented as above.
(§3) At least 4 h later cells were treated with antiestrogens and media was diluted to 2.5% stripped FBS. Cells were incubated for 3 days, media removed and plates frozen at −80 °C. Thawed plates were incubated with a chromogenic substrate of AP, p-nitrophenyl phosphate (ThermoFisher Scientific, #36721), for 40–60 min at 40 °C, and absorbance read at 405 nm on the Varioskan Lux multimodal plate reader (ThermoFisher Scientific, #VLBL00D0).

For assay [4], the system named is estrogen responsive reporter gene, ERE-tk109-Luc, in MCF-7 cells. As to the kind of experiment: Inhibition of E2-stimulated transcription of ERE-tk109-Luc reporter gene in MCF-7 cells. In kind it is cell-based. Particulars: Homo sapiens. Background: Reporter assays use an easily measured gene product as a stand-in for the process of interest.
The subject of assay [5] is MCF-7 cells. As to the kind of experiment: Inhibition of E2-stimulated proliferation of MCF-7 cells. In kind it is cell-based. The conditions noted are these: Homo sapiens.
The target of assay [6] is T1, ERα (Homo sapiens, UniProt P03372).
T1 construct: endogenous in cells
T1 sequence (P03372 1-595): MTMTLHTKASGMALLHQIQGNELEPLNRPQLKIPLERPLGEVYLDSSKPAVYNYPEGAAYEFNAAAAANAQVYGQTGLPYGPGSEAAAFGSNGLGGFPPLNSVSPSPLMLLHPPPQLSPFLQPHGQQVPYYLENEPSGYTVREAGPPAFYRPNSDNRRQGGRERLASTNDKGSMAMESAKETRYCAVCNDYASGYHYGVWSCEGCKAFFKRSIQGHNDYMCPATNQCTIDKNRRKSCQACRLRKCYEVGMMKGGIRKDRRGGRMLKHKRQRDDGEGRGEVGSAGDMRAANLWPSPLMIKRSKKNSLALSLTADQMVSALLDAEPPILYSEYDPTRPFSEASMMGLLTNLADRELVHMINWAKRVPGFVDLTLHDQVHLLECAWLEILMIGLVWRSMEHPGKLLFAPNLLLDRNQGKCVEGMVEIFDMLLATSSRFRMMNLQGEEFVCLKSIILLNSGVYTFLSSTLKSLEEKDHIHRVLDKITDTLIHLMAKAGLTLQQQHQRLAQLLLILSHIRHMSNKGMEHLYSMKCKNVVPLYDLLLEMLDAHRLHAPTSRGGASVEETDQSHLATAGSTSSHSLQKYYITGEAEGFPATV
As to the kind of experiment: ERα protein levels by immunoblotting. In kind it is cell-based. Particulars: MCF-7 cells, 100 nM ligand, 24 h, means of n experiments ±s.d. Here is the method:
However, it is conceivable that under some clinical contexts SERD activity may still be a desirable feature by reducing the number of functional receptors in tumors.
Imaging was performed on FluorChem Imager by Alpha Innotech. […] An uncropped image of the immunoblot is shown in Supplementary Fig. 5.
Background: In western blotting, separated proteins are transferred to a membrane and probed.

In assay [7] the test system is CAMA-1 cells. The experiment in a line: Inhibition of E2-stimulated proliferation of CAMA-1 cells. It is filed as cell-based. The conditions noted are these: Homo sapiens, CAMA-1, 192 h; read-out: CAMA-1 IC50 proliferation (Fig. 3c). The protocol:
Shown is a representative figure analyzed and presented as above. d, Western blot of destabilization of ERα protein by OP-1074.
Proliferation was measured using CyQuant fluorescent DNA-binding dye kit (ThermoFisher Scientific, #C7026) using 1:200 GR dye and reading fluorescence at 485 nm excitation and 538 nm emission on the Varioskan Lux multimodal plate reader.

For assay [8], the target named is T2, Estrogen Receptor α LBD (ERα) (Homo sapiens, UniProt P03372).
T2 construct: 2 nM biotinylated Estrogen Receptor α LBD (ERα) was incubated; biotin (biotinylated)
T2 sequence (P03372 311-547 limits assumed): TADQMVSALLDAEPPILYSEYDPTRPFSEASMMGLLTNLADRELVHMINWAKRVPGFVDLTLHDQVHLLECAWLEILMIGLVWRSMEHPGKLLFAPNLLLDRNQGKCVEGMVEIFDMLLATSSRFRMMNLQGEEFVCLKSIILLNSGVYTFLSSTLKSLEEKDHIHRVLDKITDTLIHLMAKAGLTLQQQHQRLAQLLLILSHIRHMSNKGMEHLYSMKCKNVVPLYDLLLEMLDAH
As to the kind of experiment: Competitive ligand binding assay with [3H]-E2. The conditions noted are these: for IC50: 10 nM [3H]-E2 tracer, 2 nM biotinylated ERα LBD, representative experiment. The protocol: Experimental data points are mean + /− s.e.m. of triplicate samples in a representative experiment. […] Experimental data points are mean + /− s.d. of triplicate samples in a representative experiment
Triplicate reactions were vortexed and 100 μL was added in triplicate to a 96-well streptavidin flashplate (Perkin Elmer #SMP103001PK), which incubated overnight at 4 °C prior to reading.

For assay [9], the system named is E2-stimulated AP activity in Ishikawa cells. As to the kind of experiment: Alkaline phosphatase (AP) assay, antagonist mode (presence of 500 pM E2). It is filed as cell-based, human. Particulars: for Antagonism of E2-stimulated AP activity: 500 pM E2. The protocol:
as §1, §2, §3

The test system of assay [10] is uterus of ovariectomized mice. Also noted: method as in PMID 15968821. Particulars: cited from earlier work.
Assay [11] has as its system MCF7/HER2/neu tumors. Here is the method:
MCF7/HER2/neu cells were grown in culture and implanted into 6–7 week athymic ovariectomized female nu/nu mice (Taconic Biosciences). To stimulate tumor growth, 0.18 mg estradiol 90 day release pellets (Innovative Research) were implanted along with cells. […] Tumor volume and bodyweight were measured twice weekly. At end of the study animals were euthanized, tumors resected and snap frozen in liquid nitrogen, and uteri were resected, weighed, and fixed in 10% formalin.

Where [12] appears, read: MCF7, 24 h, read-out: IC50 transcription.
Setting [13] is: MCF7, read-out: IC50 proliferation.
The mark [14] stands for this setting: MCF7, 22 h, read-out: IC50 inhibition of E2-stimulated transcription (Fig. 3a).
Setting [15] is: MCF7, 168 h, read-out: MCF-7 IC50 proliferation (Fig. 3b).
The mark [16] stands for this setting: number of 10 tumors at end of study, OP-1074 100 mg/kg oral twice daily, fulvestrant 100 mg/kg subcutaneous daily.

Several values for one entry are separate records, joined by “and”; a condition that tells them apart may be missing. Identical values can stand only once. Like-named read-outs stand apart in the source and are kept apart here.

For `CC/C(=C(\c1ccc(O)cc1)c1ccc(OCCN(C)C)cc1)c1ccccc1` [4-OHT, (Z)-4-trans-hydroxytamoxifen], the “Activation of AP” value in assay [1] is on record as 1.3 fold.

Regarding `CC/C(=C(/c1ccc(/C=C/C(=O)O)cc1)c1ccc2[nH]ncc2c1)c1ccc(F)cc1Cl` [GDC-0810], the “Agonist effects in the uterus” value in assay [2] is “mild to moderate agonist effects in the uterus”.

Regarding `CC1=C(c2ccc(O)cc2)C(c2ccc(OCCN3CCC[C@H]3C)cc2)Oc2cc(O)ccc21` (some centres unmarked) [OP-1039], the “Induction of AP activity (% E2)” value in assay [3] is given as 49% ± 18 (n = 8) % E2. For the same compound, the IC50 in assay [4] (setting [12]) turned out to be 0.5 ± 0.1 nM; in assay [5] (setting [13]), 6.4 ± 1 nM. Also, the “Relative ERα protein levels (% vehicle)” value in assay [6] is reported as 119% ± 13 (n = 6) % vehicle.

With `CC1=C(c2ccc(O)cc2)C(c2ccc(OCCN3CCC[C@@H]3C)cc2)Oc2cc(O)ccc21` (some centres unmarked) [OP-1047], the “Induction of AP activity (% E2)” value in assay [3] is given as 136% ± 15 (n = 4) % E2. Besides, the IC50 in assay [4] (setting [12]) was 1.3 ± 0.4 nM; in assay [5] (setting [13]), 5.5 ± 1.4 nM. In addition, the “Relative ERα protein levels (% vehicle)” value in assay [6] is 319% ± 100 (n = 5) % vehicle.

For the compound `CC1=C(c2ccc(O)cc2)[C@H](c2ccc(OCCN3CC[C@H](C)C3)cc2)Oc2cc(O)ccc21` [OP-1154], the “Maximal AP activity in agonist mode relative to E2 control” value in assay [3] (3 days) was determined as 39%. Also, the “Induction of AP activity (% E2)” value in [3] is listed as 40% ± 6.5 (n = 3) % E2. The IC50 came out at 8.1 nM in [7]; 14.3 ± 0.06 nM in assay [8]; 4 nM in assay [4] (setting [14]); 5.6 ± 2.1 nM in [4] (setting [12]); 6.9 nM in [5] (setting [15]); 6 ± 1.1 nM in assay [5] (setting [13]). Also, in assay [8] ([3H]-E2 competitive binding), the “Binding affinity relative to OP-1074 and OP-1156 (fold lower)” value is recorded as “approximately 2 fold”. In assay [9] (Ishikawa cells), the “Antagonism of E2-stimulated AP activity” value is “did not completely antagonize E2-stimulated AP activity”. The “Relative ERα protein levels (% vehicle)” value in assay [6] is listed as 123% ± 22 (n = 4) % vehicle.

Regarding `CC1=C(c2ccc(O)cc2)[C@H](c2ccc(OCCN3CCCC3)cc2)Oc2cc(O)ccc21` [OP-1156], in assay [3] (3 days), the “Maximal AP activity in agonist mode relative to E2 control” value was determined as 40%. Further, the “Induction of AP activity (% E2)” value in [3] is 40% ± 7.8 (n = 3) % E2. Moreover, the IC50 was 4.2 nM in assay [7]; 6 nM and 6.13 nM in assay [8]; 4 nM in assay [4] (setting [14]); 5.9 ± 2.1 nM in assay [4] (setting [12]); 6.3 nM in assay [5] (setting [15]); 5.2 ± 1.3 nM in assay [5] (setting [13]). Moreover, the Uterine wet weight entry in [10] was “increased uterine wet weight”. Further, in assay [6], the “Relative ERα protein levels (% vehicle)” value is recorded as 152% ± 31 (n = 4) % vehicle.

Regarding `CCNCCc1ccc(CN(CC)c2cc(OC)ccc2[C@@H]2CCc3cc(O)ccc3C2)cc1` [RAD1901], in assay [2], the “Agonist effects in the uterus” value was “mild to moderate agonist effects in the uterus”.

Take `CC/C(=C(\c1ccc(O)cc1)c1ccc(OCCNC)cc1)c1ccccc1` [endoxifen, (Z)-4-hydroxy-N-desmethyltamoxifen, reference compound]: the “Maximal AP activity in agonist mode relative to E2 control” value in assay [3] (3 days) turned out to be 82%. Also, in [3], the “Induction of AP activity (% E2)” value was 73% ± 10 (n = 8) % E2. The values for the IC50 in assay [4] (setting [12]) and in [5] (setting [13]) were 6.3 ± 1.3 nM and 13 ± 2.2 nM, respectively. The “AP activity remaining in antagonist mode” value in assay [9] (Ishikawa cells, 500 pM E2, 1 µM drug) is reported as 58%. Also, in assay [6], the “Relative ERα protein levels (% vehicle)” value is given as 139% ± 34 (n = 20) % vehicle.

For `C[C@]12CC[C@@H]3c4ccc(O)cc4C[C@@H](CCCCCCCCC[S+]([O-])CCCC(F)(F)C(F)(F)F)[C@H]3[C@@H]1CC[C@@H]2O` (some centres unmarked) [fulvestrant, reference compound], in [3] (3 days, absence of E2, all doses tested), the “AP activity in agonist mode” value is “lacked any AP activity”. For the same compound, the “Induction of AP activity (% E2)” value in assay [3] is on record as 0.05% ± 2.7 (n = 58) % E2. The IC50 in assay [7] was 1.9 nM; in [4] (setting [14]) it was 6.3 nM; in [4] (setting [12]), 2 ± 0.2 nM; in assay [5] (setting [15]) it was 2.2 nM; in assay [5] (setting [13]) it was 2.5 ± 0.3 nM; in assay [9] (Homo sapiens, Ishikawa, 72 h, read-out: IC50 inhibition of E2-stimulated AP activity), 3 nM. In addition, the “Tumors shrunk / growth inhibited by >50%” value in [11] (setting [16]) is 5/10. In addition, in [11] (setting [16]), the “Tumors shrunk >80%” value is recorded as 1/10. In addition, the “Antagonism of E2-stimulated AP activity” value in assay [9] (Ishikawa cells) was “completely inhibited E2-stimulated AP activity”.

Take `CC/C(=C(\c1ccccc1)c1ccc(OCCN(C)C)cc1)c1ccccc1` [tamoxifen, reference compound]: the “Tumors shrunk below the initial tumor size” value in [11] (end of study, 100 mg/kg tamoxifen daily by oral gavage) is recorded as “half”.
